In the NIST ThermoML archive (doi:10.1016/j.jct.2019.02.011):

Assay: xn = mol fraction of the nth substance listed
Details: Liquid, Vibrating tube method

COC(=O)OC [dimethyl carbonate] + CCCO
mass density [kg/m3]
Details	100 kPa	5000 kPa	10000 kPa	15000 kPa	20000 kPa	25000 kPa	30000 kPa	35000 kPa	40000 kPa
293.15 K, x1 = 0.0273	–	–	–	821.94	825.23	828.56	831.57	834.42	837.07
293.15 K, x1 = 0.0506	–	–	–	828.58	831.87	835.25	838.27	841.13	843.83
293.15 K, x1 = 0.0755	–	–	–	835.71	839.06	842.44	845.52	848.42	851.14
293.15 K, x1 = 0.1007	–	–	–	842.9	846.25	849.69	852.76	855.68	858.39
293.15 K, x1 = 0.1495	–	–	–	856.75	860.16	863.6	866.73	869.7	872.48
293.15 K, x1 = 0.2003	–	–	–	871.06	874.53	878.01	881.2	884.18	887.03
293.15 K, x1 = 0.2529	–	–	882.09	885.77	889.3	892.84	896.04	899.12	902.04
293.15 K, x1 = 0.2993	–	–	894.95	898.64	902.18	905.76	909.02	912.16	915.09
293.15 K, x1 = 0.3497	–	–	908.71	912.45	916.05	919.68	923	926.2	929.19
293.15 K, x1 = 0.401	–	–	922.59	926.38	930.03	933.72	937.09	940.3	943.36
293.15 K, x1 = 0.4509	–	–	936.03	939.87	943.59	947.28	950.71	953.97	957.05
293.15 K, x1 = 0.5002	–	–	949.24	953.09	956.87	960.6	964.04	967.36	970.51
293.15 K, x1 = 0.5498	–	–	962.47	966.32	970.1	973.84	977.34	980.72	983.88
293.15 K, x1 = 0.5996	–	–	975.61	979.51	983.36	987.15	990.65	994.04	997.26
293.15 K, x1 = 0.6499	–	–	988.81	992.77	996.62	1000.46	1004.03	1007.42	1010.66
293.15 K, x1 = 0.7006	–	–	1002.08	1006.04	1009.95	1013.8	1017.37	1020.81	1024.12
293.15 K, x1 = 0.7471	–	–	1014.07	1018.08	1022.06	1025.95	1029.53	1032.98	1036.36
293.15 K, x1 = 0.7989	–	–	1027.41	1031.43	1035.41	1039.31	1042.94	1046.46	1049.84
293.15 K, x1 = 0.8491	–	–	1040.37	1044.44	1048.43	1052.38	1056.08	1059.59	1063.05
293.15 K, x1 = 0.8993	–	–	1053.34	1057.42	1061.47	1065.42	1069.12	1072.65	1076.12
293.15 K, x1 = 0.9249	–	–	1059.86	1063.94	1067.99	1071.94	1075.65	1079.23	1082.7
293.15 K, x1 = 0.9489	–	–	1065.93	1070.01	1074.07	1078.02	1081.73	1085.31	1088.8
293.15 K, x1 = 0.9743	–	–	1072.35	1076.43	1080.5	1084.5	1088.21	1091.8	1095.29
293.15 K, x1 = 1	–	–	1078.93	1083.01	1087.08	1091.03	1094.75	1098.34	1101.84
298.15 K, x1 = 0.0273	807.06	810.99	814.7	818.11	821.44	–	–	–	–
298.15 K, x1 = 0.0506	813.55	817.52	821.28	824.74	828.12	–	–	–	–
298.15 K, x1 = 0.0755	820.52	824.54	828.31	831.81	835.25	–	–	–	–
298.15 K, x1 = 0.1007	827.5	831.52	835.34	838.84	842.29	–	–	–	–
298.15 K, x1 = 0.1495	841.12	845.19	849.06	852.61	856.13	–	–	–	–
298.15 K, x1 = 0.2003	855.15	859.27	863.19	866.8	870.37	–	–	–	–
298.15 K, x1 = 0.2529	869.54	873.66	877.64	881.29	884.88	–	–	–	–
298.15 K, x1 = 0.2993	882.18	886.34	890.38	894.08	897.73	–	–	–	–
298.15 K, x1 = 0.3497	895.71	899.93	904.02	907.77	911.48	–	–	–	–
298.15 K, x1 = 0.401	909.36	913.63	917.77	921.57	925.35	–	–	–	–
298.15 K, x1 = 0.4509	922.58	926.89	931.09	934.95	938.74	–	–	–	–
298.15 K, x1 = 0.5002	935.57	939.93	944.14	948.04	951.89	–	–	–	–
298.15 K, x1 = 0.5498	948.57	952.93	957.19	961.1	–	–	–	–	–
298.15 K, x1 = 0.5996	961.54	965.95	970.21	974.17	–	–	–	–	–
298.15 K, x1 = 0.6499	974.52	978.92	983.24	987.25	–	–	–	–	–
298.15 K, x1 = 0.7006	987.56	992.01	996.39	1000.44	–	–	–	–	–
298.15 K, x1 = 0.7471	999.38	1003.88	1008.26	1012.37	–	–	–	–	–
298.15 K, x1 = 0.7989	1012.54	1017.09	1021.53	1025.64	–	–	–	–	–
298.15 K, x1 = 0.8491	1025.27	1029.83	1034.32	1038.48	–	–	–	–	–
298.15 K, x1 = 0.8993	1038.07	1042.62	1047.12	1051.28	–	–	–	–	–
298.15 K, x1 = 0.9249	1044.52	1049.07	1053.57	1057.78	–	–	–	–	–
298.15 K, x1 = 0.9489	1050.53	1055.08	1059.58	1063.79	–	–	–	–	–
298.15 K, x1 = 0.9743	1056.89	1061.44	1065.95	1070.16	–	–	–	–	–
298.15 K, x1 = 1	1063.45	1068	1072.51	1076.72	–	–	–	–	–
